Measured values: the CheMixHub viscosity set

Assay: xn = mol fraction of the nth substance listed

OCCO + CN(C)C=O
viscosity [mPa·s]
Conditions | 308.15 K | 313.15 K | 318.15 K | 323.15 K
100 kPa, x1 = 0.1049 | – | 1.08 | 0.96 | 0.87
100 kPa, x1 = 0.2019 | – | 1.28 | 1.21 | 1.08
100 kPa, x1 = 0.3063 | – | 1.67 | 1.53 | 1.38
100 kPa, x1 = 0.3993 | – | 2.24 | 2.12 | 1.92
100 kPa, x1 = 0.4986 | – | 2.82 | 2.43 | 2.19
100 kPa, x1 = 0.6048 | – | 3.47 | 3.05 | 2.8
100 kPa, x1 = 0.7069 | – | 4.54 | 3.98 | 3.53
100 kPa, x1 = 0.8032 | – | 5.68 | 5.04 | 4.4
100 kPa, x1 = 0.9054 | – | 7.45 | 6.45 | 5.59
101 kPa, x1 = 0.6745 | 3.878 | – | – | –
101 kPa, x1 = 0.6889 | 4.137 | – | – | –
101 kPa, x1 = 0.7677 | 5.167 | – | – | –
101 kPa, x1 = 0.783 | 5.498 | – | – | –
101 kPa, x1 = 0.8456 | 6.582 | – | – | –
101 kPa, x1 = 0.885 | 7.454 | – | – | –
101 kPa, x1 = 0.9229 | 8.355 | – | – | –
101 kPa, x1 = 0.9484 | 9.02 | – | – | –
101 kPa, x1 = 0.968 | 10.48 | – | – | –
101 kPa, x2 = 0.0864 | 9.133 | 7.725 | 6.606 | 5.671
101 kPa, x2 = 0.1758 | 7.023 | 5.998 | 5.171 | 4.507
101 kPa, x2 = 0.3623 | 4.044 | 3.551 | 3.139 | 2.789
101 kPa, x2 = 0.5609 | 2.289 | 2.064 | 1.873 | 1.711
101 kPa, x2 = 0.7734 | 1.285 | 1.185 | 1.096 | 1.022
101 kPa, x2 = 0.8848 | 0.957 | 0.8951 | 0.8415 | 0.7911
